Measured values as given in patent US10071244B2, “Thoracoscopic electroporation device with a suction head and with needle electrodes” (UNIVERSITY COLLEGE CORK—NATIONAL UNIVERSITY OF IRELAND, CORK, priority 2012, dated 2018).

Tested on: tumour tissue
Assay: Evans Blue perfusion test in tumour-bearing mouse
Format: in vivo
Source text: FIG. 53 illustrates the result of an Evans Blue perfusion test;
Perfusion • A. One of the physiological impediments reducing the efficacy of chemotherapy relates to the poor diffusion of the drug from the capillaries through to the interstitial spaces surrounding the tumour cells. Poor lymphatic drainage and an irregular vasculature leads to the tumour interstitial pressure increasing with time as the tumour grows. This positive pressure is the opposite of normal tissue where a slightly negative interstitial pressure allows for convection of molecules across the capillaries. See FIG. 51 in which the X-axis represents the tumour volume in cm^3, Y-axis represents tumour interstitial pressure readings in mmHg. Each dot represents one TIP reading at a given tumour volume. Linear line represents correlation coefficients between tumour volume and TIP. • B. The positive pressure within the tumour tissue can be immediately negated through the placement of a vacuum directly on the tumour tissue. […] This facilitates better drug perfusion throughout the tumour interstitial spaces (between the cells) by allowing convection of macromolecules from the capilliaries to the […]. • C. This correction allows for perfusion of the chemotherapy from the capillaries into the tumour tissue. […]

With Cc1cc(-c2ccc(/N=N/c3ccc4c(S(=O)(=O)O)cc(S(=O)(=O)O)c(N)c4c3O)c(C)c2)ccc1/N=N/c1ccc2c(S(=O)(=O)O)cc(S(=O)(=O)O)c(N)c2c1O [Evans blue] as the compound, how does the “dye perfusion into tumour, no vacuum” value (15 mins after injection into blood supply, tumour excised and dissected) read?
The value was “only the periphery has absorbed the dye”.

And the “dye perfusion into tumour, with vacuum” value (vacuum applied to the tumour for 1 minute at 200 mmHg of negative pressure)?
The value was “Deep permeation of the dye is achieved throughout the tumour tissue”.
